Laboratory results published in patent US12084421B2, “Quinoline-based proteasome inhibitors and uses thereof” (Board of Trustees of Michigan State University, priority 2017, dated 2024).
Converted amounts (≈) assume the structure as drawn.

Columns and labels:
[1] = molecular target: purified human 20S proteasome (CT-L activity) (Homo sapiens, UniProt P28074); experiment: Proteasomal CT-L activity measurement with Suc-LLVY-AMC; assay type: biochemical; settings: for IC50: Suc-LLVY-AMC substrate, 37° C., 30 min
Experimental: (§1) Proteasomal activity measurement: The fluorogenic substrates Suc-LLVY-AMC, Z-ARR-AMC, and Z-LLE-AMC were used to measure CT-L, T-L and casp-L proteasome activities, respectively. Assays were carried out in black, clear bottom 96 well plates in a 200 μL reaction volume containing 1 nM of purified human 20S proteasome in 50 mM Tris-HCL pH 7.5 and 0.03% SDS containing 50 IM fluorogenic substrate at 37° C. The rate of cleavage of fluorogenic peptide substrates was determined by monitoring the fluorescence of released aminomethylcoumarin using a SpectraMax M5e multiwall plate reader at an excitation wavelength of 380 nm and emission wavelength of 460 nm. Fluo-rescence was measured every minute over a period of 30 minutes and the maximum increase in fluorescence per minute was used to calculate specific activities of each sample.
Compounds were screened in vitro using purified human 20S proteasome and the fluorogenic peptide substrate, Suc-LLVY-AMC, as the substrate for CT-L activity as described herein.
The mechanism by which quinoline 7 inhibits the proteasome was investigated using Michaelis-Menton analysis to determine of KM and Vmax and then further illustrated using a Lineweaver-Burk double reciprocal plot of the kinetic data. Kinetic analysis of CT-L activity of purified 20S particles indicate that when the substrate (Suc-LLVY-AMC) concentration was increased incrementally and measurements were taken at five different concentrations of compound 7 or vehicle, the Vmax of the CT-L activity decreases and the KM increases, with the increasing concentration of […].

Kinetic solubility assay = assay type: physicochemical; settings: phosphate buffered saline with 1% DMSO, aqueous buffer, kinetic from dmso stock; estimated kinetic solubility, phosphate buffered saline pH 7.4, 1% DMSO, 2 hours at 37° C., absorbance 620 nm
Experimental: Seven three-fold dilutions from 300 μM were prepared in phosphate buffered saline (ph=7.4) and 1% DMSO. Each concentration for each compound was tested three times (n=3). The compounds were incubated for 2 hours at 37° C. and the absorbance at 620 nm was evaluated for each dilution.

[2] = Microsome (S9 fraction) stability assay; assay type: in vitro ADME; settings: mouse S9 fraction 0.25 mg/mL, 3 μM compound, NADPH, LC-MS/MS
[3] = molecular target: purified human 20S proteasome (casp-L activity) (Homo sapiens, UniProt P28072); experiment: Proteasomal casp-L activity measurement with Z-LLE-AMC; assay type: biochemical; settings: Z-LLE-AMC substrate
Experimental: as §1
Quinoline 7 was subsequently evaluated for its inhibition of the proteasome's tryptic (b2)-like and caspase (b1)-like activity in vitro using purified human 20S proteasome and the following fluorogenic peptide as substrates: Boc-LRR-AMC (substrate for T-L activity) and Z-LLE-AMC (substrate for casp-L activity).

HeLa NF-κB-luc cells = experiment: NF-κB-luc reporter assay, TNF-α stimulated; assay type: cell-based; settings: Homo sapiens, 30 min pretreatment, TNF-α 25 ng/mL, 8 h, Steady-Glo luciferase, read-out: IC50, NF-κB mediated gene transcription
Experimental: NF-κB-luc reporter assay: HeLa NF-κB-luc cells (5.0×10^5 cells/mL) were seeded into a 96-well white opaque plate using DMEM medium supplemented with 5% fetal bovine serum, 500 U/mL penicillin, 100 μg/mL streptomycin, 1 mM sodium pyruvate, 0.2 mM L-glutamine, and 100 Ig/mL hygromycin B. After 24 h the cell culture medium was replaced with DMEM medium supplemented with 100 U/mL penicillin and 100 Ig/mL streptomycin. Cell cultures were pretreated with vehicle (1% DMSO), 50 IMpeptide aldehyde MG-132 (positive control) or quinoline (final concentrations were 50, 25, 12.5, 6.25, 3.13 and 1.56 IM) for 30 min at 37° C. in 5% CO2. TNF-α was added to a final concentration of 25 ng/mL and the samples were further incubated for 8 h at 37° C. in 5% CO2. […] The luminescence of each well was measured using a Veritas microplate luminometer. […] The data was analyzed using GraphPad Prism 4.0. The data was normalized to TNF-α activation and the EC50 values were calculated using the equation for the sigmodial curve for variable slope.
In order to evaluate whether the inhibition of proteasome activity translated in cell culture, we evaluated compound 7 for inhibition of NE-KB regulation. […] In order to determine if quinoline 7 affects NE-KB mediated gene transcription, we evaluated quinoline 7 in HeLa NE-KB-luc cells. […]

IC50 [1] [µM]	solubility at 2 h (Kinetic solubility assay) [µM]	Compound remaining after 30 min in mouse S9 [2] [%]	Compound	also measured
6.7	138 (≈ 37.1 µg/mL)	4	Cc1nc2ccc(N(C)C)cc2cc1C1CCCCC1 [Compound 29, 3-Cyclohexyl-2-methyl-6-(N,N-dimethylamino) quinoline]	–
8.2	129 (≈ 32.6 µg/mL)	100	Cc1cc(C)c2cc(C3CCCCC3)c(C)nc2c1 [Compound 11]	–
9.9	–	–	Cc1nc2ccc(Br)cc2cc1C1=CCCCC1 [Compound 16, 6-Bromo-3-cyclohexenyl-2-methylquinoline]	–
14.4	38.1 (≈ 9.58 µg/mL)	18	Cc1cc(C)c2cc(C3=CCCCC3)c(C)nc2c1 [Compound 7, 3-cyclohexenyl-2,5,7-trimethylquinoline]	Mechanism of inhibition (Michaelis-Menton / Lineweaver-Burk analysis) ([1]; Suc-LLVY-AMC varied, five concentrations of compound, Vmax decreases, KM increases): mixed-type inhibition; IC50 [3]: 17.7 µM; IC50 (HeLa NF-κB-luc cells): 12.1 µM
7.6	14.5 (≈ 4.05 µg/mL)	12	CCCCc1ccc2nc(C)c(C3=CCCCC3)cc2c1 [Compound 20, 6-Butyl-3-cyclohexenyl-2-methylquinoline]	–
6.1	–	–	Cc1nc2ccc(N(C)C)cc2cc1C1=CCCCC1 [Compound 22, 3-Cyclohexenyl-2-methyl-6-(N,N-dimethylamino) quinoline]	–
18.7	–	–	CCc1cc2cc(N(C)C)ccc2nc1CC [Compound 33, 2,3-Diethyl-N,N-dimethylquinoline]	–
19.9	–	–	CCc1nc2cc(C)cc(C)c2cc1C1=CCCCC1 [Compound 8, 2-Ethyl-3-cyclohexenyl-5,7-dimethylquinoline]	–
19.2	–	–	Cc1ccc2nc(C)c(-c3ccccc3)cc2c1 [Compound 5, 2,6-Dimethyl-3-phenylquinoline]	–
6.3	–	–	CN(C)c1ccc2ncc(C3=CCCCC3)cc2c1 [Compound 21, 3-Cyclohexenyl-6-(N,N-dimethylamino)quinoline]	–
15.6	–	–	COc1cc2nc(C)c(C3=CCCCC3)cc2c(OC)c1OC [Compound 27, 3-Cyclohexenyl-5,6,7-trimethoxy-2-methylquinoline]	–
21.6	–	–	CCCCc1ccc2nc(C)c(-c3ccccc3)cc2c1 [Compound 36, 6-Butyl-2-methyl-3-phenylquinoline]	–
5.4	–	–	Cc1nc2ccc(N3CCCCC3)cc2cc1C1=CCCCC1 [Compound 25, 3-Cyclohexenyl-2-methyl-6-piperidinylquinoline]	–
13.8	–	–	Cc1cc(C)c2cc(C3=CCCCC3)cnc2c1 [Compound 9, 3-Cyclohexenyl-5,7-dimethylquinoline]	–
5.6	27.4 (≈ 7.68 µg/mL)	5	CCc1nc2ccc(N(C)C)cc2cc1C1=CCCCC1 [Compound 23, 3-Cyclohexenyl-2-ethyl-6(N,N-dimethylamino)quinoline]	–
7.8	11.7 (≈ 3.11 µg/mL)	6	Cc1nc2ccc(C(C)C)cc2cc1C1=CCCCC1 [Compound 30, 3-Cyclohexenyl-6-isopropyl-2-methylquinoline]	–
8.5	–	–	Cc1ccc2nc(C)c(C3=CCCCC3)cc2c1 [Compound 19, 3-Cyclohexenyl-2,6-dimethylquinoline]	–
10	121 (≈ 31.9 µg/mL)	>100	Cc1nc2ccc(N(C)C)cc2cc1-c1ccccc1 [Compound 34, 2-methyl-3-phenyl-6-(N,N-dimethylamino) quinoline]	–
23.6	–	–	Cc1cc(C)c2cc(-c3ccccc3)cnc2c1 [Compound 4, 5,7-Dimethyl-3-phenylquinoline]	–
5.5	–	–	CN(C)c1ccc2ncc(C3CCCCC3)cc2c1 [Compound 28, 3-Cyclohexyl-6-(N,N-dimethylamino)quinoline]	–
15.3	–	–	Cc1cc(C)c2cc(-c3ccccc3)c(C)nc2c1 [Compound 6, 2,5,7-trimethyl-3-phenylquinoline]	–
